Laboratory results: patent publication US20250188123A1, “PROTEASE INHIBITORS” (Regents of the University of Minnesota, priority 2022, published 2025)

Biological target: T1, Human recombinant Casp9 (Homo sapiens, UniProt P55211)
T1 construct: purchased BioVision (Milpitas/CA, USA)
T1 sequence (P55211 1-416): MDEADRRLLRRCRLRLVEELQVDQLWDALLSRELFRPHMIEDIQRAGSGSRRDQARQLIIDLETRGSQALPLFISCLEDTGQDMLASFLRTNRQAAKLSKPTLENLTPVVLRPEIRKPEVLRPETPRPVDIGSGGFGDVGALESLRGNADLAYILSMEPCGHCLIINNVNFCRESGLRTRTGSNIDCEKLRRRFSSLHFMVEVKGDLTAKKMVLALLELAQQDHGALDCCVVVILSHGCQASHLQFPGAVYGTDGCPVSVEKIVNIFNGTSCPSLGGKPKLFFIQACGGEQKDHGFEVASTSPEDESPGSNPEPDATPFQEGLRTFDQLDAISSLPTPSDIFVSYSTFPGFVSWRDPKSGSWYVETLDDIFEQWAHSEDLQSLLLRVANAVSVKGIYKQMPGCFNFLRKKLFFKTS
Assay: In vitro caspase panel assay, Casp9
Assay type: biochemical
Conditions: Casp2 over Casp9, caspase panel
Source text: Human recombinant Casp1, 6, 7, and 9 were purchased from BioVision (Milpitas/CA, USA). AFC fluorogenic substrates and control peptides (AcYVAD-CHO, AcVDVAD-CHO, AcDEVD-CHO, AcVEID-CHO, and AcLEHD-CHO) were purchased from Bachem (Torrance/CA, USA). The pET23b vector encoding human caspase-3 was a gift of Dr. Michelle Arkin at University of California, San Francisco. Expression and purification of Casp3 was guided by previously described protocols (Denault J-B, Salvesen G S., Current Protocols in Protein Science, 2002, 30(1), 21.13. 1-21.13. 15). Briefly, the plasmid was transformed into E. coli Rosetta 2 pLyss DE3 cells that were cultured at 1 L scale in shake flasks. […] The typical yield for the expression, isolation, and purification was approximately 3 mg/L. The DNA encoding human caspase-2 (hCASP2, amino acids 170-452, free of the N-terminal caspase activation and recruitment domain) open reading frame (ORF) was amplified via polymerase chain reaction (PCR) from full-length hCASP2 cDNA (Origene, Rockville, MD; Cat #SC321316) using following primers: forward, 5′-[…]-3′; reverse, 5′-[…]-3′. […] Proteins were stored in 1× phosphate-buffered saline (pH 7.4) at 10 mg/mL (concentration determined using a BCA assay (Thermo Fisher Scientific)), −80° C. until further use. […]

With `Cc1ccc2c(c1)CCN(C(=O)[C@@H](NC(=O)[C@H](CCCC(=O)O)NC(=O)C1Cc3ccccc3N1)C(C)C)[C@@H]2C(=O)N[C@H](C#N)CC(=O)O` (stereo partly drawn) [Compound 1, (8)-6-(((S)-1-((8)-1-(((S)-2-carboxy-1-cyanoethyl)carbamoyl)-6-methyl-3,4-dihydroisoquinolin-2(1H)-yl)-3-methyl-1-oxobutan-2-yl)amino)-5-((S)-indoline-2-carboxamido)-6-oxohexanoic acid] the “selective versus Casp9” value was over 2000 fold.
